Measurements from patent US5434256A, “Diamine platinum complexes as antitumor agents” (priority 1994, dated 1995).
Entries after “also recorded” stand apart in the source; their conditions may differ.

system: L1210/DACH cells; assay: MTT cytotoxicity, tetraplatin-resistant L1210/DACH (Example 5, Table 10); assay type: cell-based, murine; conditions: 72 hr (3 days) continuous exposure

SMILES	IC50
CCCCCCC(=O)[O][Pt]([Cl])([Cl])[O]C(=O)CCCCCC.N[C@@H]1CCCC[C@H]1N [Compound 20, (R,R-1,2-DACH)PtCl2trans(heptanoate)2]	2300 nM
CCC(=O)[O][Pt]([Cl])([Cl])[O]C(=O)CC.NC1CCC(N)CC1 [Compound 21, (cis-1,4-DACH)PtCl2 trans-(propionate)2]	40 nM
CCCC(=O)[O][Pt]([Cl])([Cl])[O]C(=O)CCC.NC1CCC(N)CC1 [Compound 22, (cis-1,4-DACH)PtCl2 trans-(butyrate)2]	20 nM

system: Murine Leukemia 1210/DDP; assay: In vivo antitumor activity against murine leukemia L1210/DDP (Example 3, Table 7); parameters: species or system BDF1 mice; conditions: L1210/DDP
Protocol: (§1) Each of the platinum complexes was evaluated in vivo against L1210/0, L1210/DDP, L1210/DACH and M5076 cells at several dose levels. […] The data at optimal doses are reproduced in Tables 4-7 along with data for the cyclobutanedicarboxylato, aquasulfato, methylmalonato and tartronato analogs (compounds 1-4 in Table 1).
(§2) BDF1 mice inoculated i.p. with 10^5 L1210 Leukemia cells on day 0 and
drug administed i.p. on days 1, 5, and 9. MTD = Maximum Tolerated Dose
(§3) (mg/kg/injection), % T/C = (mean survival time of treated/mean survival
(§4) time of control) × 100. Figures in parenthesis indicated long term

SMILES	antitumor activity in vivo against L1210/DDP (in words)
NC1CCC(N)CC1.O.O=C([O-])C1(C(=O)[O-])CCC1.[Pt+2] [Compound 1, Cis-1,4-diaminocyclohexane-1,1-cyclobutanedicarboxylato-platinum(II).H2 O]	inactive
NC1CCC(N)CC1.[Cl][Pt]([Cl])([Cl])[Cl] (stereo not drawn) [Compound 7, Cis-1,4-Diaminocyclohexanetetrachloroplatinum(IV)]	good activities; also recorded: comparable or slightly greater activity

same assay, conditions: L1210/DDP i.p., BDF1 mice; drug i.p. days 1, 5, 9

SMILES	MTD (Maximum Tolerated Dose)
NC1CCC(N)CC1.[Cl][Pt]([Cl])([Cl])[Cl] (stereo not drawn) [Compound 7, Cis-1,4-Diaminocyclohexanetetrachloroplatinum(IV)]	3.1 mg/kg/injection

same assay, conditions: L1210/DDP i.p., BDF1 mice; drug i.p. days 1, 5, 9; at optimal dose/MTD

SMILES	% T/C (mean survival time of treated/mean survival time of control) × 100
NC1CCC(N)CC1.[Cl][Pt]([Cl])([Cl])[Cl] (stereo not drawn) [Compound 7, Cis-1,4-Diaminocyclohexanetetrachloroplatinum(IV)]	170%

same assay, conditions: L1210/DDP i.p., BDF1 mice; drug i.p. days 1, 5, 9; figures in parenthesis

SMILES	long term survivors/no. tested
NC1CCC(N)CC1.[Cl][Pt]([Cl])([Cl])[Cl] (stereo not drawn) [Compound 7, Cis-1,4-Diaminocyclohexanetetrachloroplatinum(IV)]	1/5

system: L1210/0 cells; assay: MTT cytotoxicity, L1210/0 (Example 5, Table 10); assay type: cell-based, murine; conditions: 72 hr (3 days) continuous exposure

SMILES	IC50
CCCCCCC(=O)[O][Pt]([Cl])([Cl])[O]C(=O)CCCCCC.N[C@@H]1CCCC[C@H]1N [Compound 20, (R,R-1,2-DACH)PtCl2trans(heptanoate)2]	150 nM
CCC(=O)[O][Pt]([Cl])([Cl])[O]C(=O)CC.NC1CCC(N)CC1 [Compound 21, (cis-1,4-DACH)PtCl2 trans-(propionate)2]	5.5 nM
CCCC(=O)[O][Pt]([Cl])([Cl])[O]C(=O)CCC.NC1CCC(N)CC1 [Compound 22, (cis-1,4-DACH)PtCl2 trans-(butyrate)2]	1.2 nM

system: Murine Leukemia L1210/0; assay: In vivo antitumor activity against murine leukemia L1210/0 (Example 3, Table 5); parameters: species or system BDF1 mice; conditions: L1210/0
Protocol: as §1
BDF1 mice inoculated i.p. with 10^5 L1210 Leukemiacells on day 0 and
(§5) drug administered i.p. on days 1, 5, and 9. MTD = Maximum Tolerated Dose
as §3
time of control) × 100. Figures in parenthesis indicate long term

SMILES	antitumor activity in vivo against L1210/0 (in words)
NC1CCC(N)CC1.[Cl][Pt]([Cl])([Cl])[Cl] (stereo not drawn) [Compound 7, Cis-1,4-Diaminocyclohexanetetrachloroplatinum(IV)]	excellent activity; also recorded: comparable or slightly greater activity

same assay, conditions: L1210/0 i.p., BDF1 mice; drug i.p. days 1, 5, 9

SMILES	MTD (Maximum Tolerated Dose)
NC1CCC(N)CC1.O.O=C([O-])C1(C(=O)[O-])CCC1.[Pt+2] [Compound 1, Cis-1,4-diaminocyclohexane-1,1-cyclobutanedicarboxylato-platinum(II).H2 O]	200 mg/kg/injection
NC1CCC(N)CC1.[Cl][Pt]([Cl])([Cl])[Cl] (stereo not drawn) [Compound 7, Cis-1,4-Diaminocyclohexanetetrachloroplatinum(IV)]	3.1 mg/kg/injection

same assay, conditions: L1210/0 i.p., BDF1 mice; drug i.p. days 1, 5, 9; at optimal dose/MTD

SMILES	% T/C (mean survival time of treated/mean survival time of control) × 100
NC1CCC(N)CC1.O.O=C([O-])C1(C(=O)[O-])CCC1.[Pt+2] [Compound 1, Cis-1,4-diaminocyclohexane-1,1-cyclobutanedicarboxylato-platinum(II).H2 O]	195%
NC1CCC(N)CC1.[Cl][Pt]([Cl])([Cl])[Cl] (stereo not drawn) [Compound 7, Cis-1,4-Diaminocyclohexanetetrachloroplatinum(IV)]	335%

same assay, conditions: L1210/0 i.p., BDF1 mice; drug i.p. days 1, 5, 9; figures in parenthesis

SMILES	long term survivors/no. tested
NC1CCC(N)CC1.[Cl][Pt]([Cl])([Cl])[Cl] (stereo not drawn) [Compound 7, Cis-1,4-Diaminocyclohexanetetrachloroplatinum(IV)]	2/5

system: L1210/DDP cells; assay: MTT cytotoxicity, cisplatin-resistant L1210/DDP (Example 5, Table 10); assay type: cell-based, murine; conditions: 72 hr (3 days) continuous exposure

SMILES	IC50
CCCCCCC(=O)[O][Pt]([Cl])([Cl])[O]C(=O)CCCCCC.N[C@@H]1CCCC[C@H]1N [Compound 20, (R,R-1,2-DACH)PtCl2trans(heptanoate)2]	700 nM
CCC(=O)[O][Pt]([Cl])([Cl])[O]C(=O)CC.NC1CCC(N)CC1 [Compound 21, (cis-1,4-DACH)PtCl2 trans-(propionate)2]	500 nM
CCCC(=O)[O][Pt]([Cl])([Cl])[O]C(=O)CCC.NC1CCC(N)CC1 [Compound 22, (cis-1,4-DACH)PtCl2 trans-(butyrate)2]	130 nM

system: not listed separately; assay: Renal and hematological toxicity, single i.p. dose (Table 8); conditions: blood urea nitrogen; single i.p. dose (mg/kg): 1,4-DACH-Pt^II CBDCA 300, 1,4-DACH-Pt^IV Cl4 8.0, Tetraplatin 8.0, Cis-platin 12.0, Carboplatin 150; saline control 20.9

SMILES	BUN d.5
NC1CCC(N)CC1.O.O=C([O-])C1(C(=O)[O-])CCC1.[Pt+2] [Compound 1, Cis-1,4-diaminocyclohexane-1,1-cyclobutanedicarboxylato-platinum(II).H2 O]	18.0 mg %
NC1CCC(N)CC1.[Cl][Pt]([Cl])([Cl])[Cl] (stereo not drawn) [Compound 7, Cis-1,4-Diaminocyclohexanetetrachloroplatinum(IV)]	21.3 mg %

same assay, conditions: single i.p. dose (mg/kg): 1,4-DACH-Pt^II CBDCA 300, 1,4-DACH-Pt^IV Cl4 8.0, Tetraplatin 8.0, Cis-platin 12.0, Carboplatin 150

SMILES	Survivors on d.14
NC1CCC(N)CC1.[Cl][Pt]([Cl])([Cl])[Cl] (stereo not drawn) [Compound 7, Cis-1,4-Diaminocyclohexanetetrachloroplatinum(IV)]	4/5

same assay, conditions: single i.p. dose (mg/kg): 1,4-DACH-Pt^II CBDCA 300, 1,4-DACH-Pt^IV Cl4 8.0, Tetraplatin 8.0, Cis-platin 12.0, Carboplatin 150; mean, S.D. less than 20%

SMILES	Body Wt. on d.5
NC1CCC(N)CC1.O.O=C([O-])C1(C(=O)[O-])CCC1.[Pt+2] [Compound 1, Cis-1,4-diaminocyclohexane-1,1-cyclobutanedicarboxylato-platinum(II).H2 O]	99 % on control
NC1CCC(N)CC1.[Cl][Pt]([Cl])([Cl])[Cl] (stereo not drawn) [Compound 7, Cis-1,4-Diaminocyclohexanetetrachloroplatinum(IV)]	89 % on control

same assay, conditions: single i.p. dose, BUN

SMILES	nephrotoxicity (in words)
NC1CCC(N)CC1.[Cl][Pt]([Cl])([Cl])[Cl] (stereo not drawn) [Compound 7, Cis-1,4-Diaminocyclohexanetetrachloroplatinum(IV)]	did not show any indication of nephrotoxicity

same assay, conditions: single i.p. dose, leucopenia

SMILES	myelotoxicity / myelosuppression (in words)
NC1CCC(N)CC1.[Cl][Pt]([Cl])([Cl])[Cl] (stereo not drawn) [Compound 7, Cis-1,4-Diaminocyclohexanetetrachloroplatinum(IV)]	did not show any indication of nephrotoxicity or myelotoxicity

system: M5076 Tumor Model; assay: In vivo antitumor activity against M5076 tumor model (Example 3, Table 4); parameters: species or system BDF1 mice; TGD (Tumor Growth Delay): unit not given beside the values; conditions: M5076 s.c., BDF1 mice; i.p. days 7, 14, 21, 28
Protocol: as §1
BDF1 mice inoculated s.c. with 10' M5076 cells on day 0 and drug
administered i.p on days 7, 14, 21, and 28. MTD = Maximum Tolerated Dose
(mg/kg/injection), TGD = Tumor Growth Delay

SMILES	MTD (Maximum Tolerated Dose)
NC1CCC(N)CC1.O.O=C([O-])C1(C(=O)[O-])CCC1.[Pt+2] [Compound 1, Cis-1,4-diaminocyclohexane-1,1-cyclobutanedicarboxylato-platinum(II).H2 O]	200 mg/kg/injection
NC1CCC(N)CC1.[Cl][Pt]([Cl])([Cl])[Cl] (stereo not drawn) [Compound 7, Cis-1,4-Diaminocyclohexanetetrachloroplatinum(IV)]	3.1 mg/kg/injection

same assay, conditions: M5076 s.c., BDF1 mice; i.p. days 7, 14, 21, 28; at optimal dose/MTD

SMILES	TGD (Tumor Growth Delay)
NC1CCC(N)CC1.O.O=C([O-])C1(C(=O)[O-])CCC1.[Pt+2] [Compound 1, Cis-1,4-diaminocyclohexane-1,1-cyclobutanedicarboxylato-platinum(II).H2 O]	42.3
NC1CCC(N)CC1.[Cl][Pt]([Cl])([Cl])[Cl] (stereo not drawn) [Compound 7, Cis-1,4-Diaminocyclohexanetetrachloroplatinum(IV)]	18.74

system: Murine Leukemia L1210/DACH; assay: In vivo antitumor activity against murine leukemia L1210/DACH (Example 3, Table 6); parameters: species or system BDF1 mice; conditions: L1210/DACH
Protocol: as §1, §2, §5, §3, §4

SMILES	antitumor activity in vivo against L1210/DACH (in words)
NC1CCC(N)CC1.[Cl][Pt]([Cl])([Cl])[Cl] (stereo not drawn) [Compound 7, Cis-1,4-Diaminocyclohexanetetrachloroplatinum(IV)]	good activities; also recorded: good activity

same assay, conditions: L1210/DACH i.p., BDF1 mice; drug i.p. days 1, 5, 9

SMILES	MTD (Maximum Tolerated Dose)
NC1CCC(N)CC1.O.O=C([O-])C1(C(=O)[O-])CCC1.[Pt+2] [Compound 1, Cis-1,4-diaminocyclohexane-1,1-cyclobutanedicarboxylato-platinum(II).H2 O]	200 mg/kg/injection
NC1CCC(N)CC1.[Cl][Pt]([Cl])([Cl])[Cl] (stereo not drawn) [Compound 7, Cis-1,4-Diaminocyclohexanetetrachloroplatinum(IV)]	3.1 mg/kg/injection

same assay, conditions: L1210/DACH i.p., BDF1 mice; drug i.p. days 1, 5, 9; at optimal dose/MTD

SMILES	% T/C (mean survival time of treated/mean survival time of control) × 100
NC1CCC(N)CC1.O.O=C([O-])C1(C(=O)[O-])CCC1.[Pt+2] [Compound 1, Cis-1,4-diaminocyclohexane-1,1-cyclobutanedicarboxylato-platinum(II).H2 O]	180%
NC1CCC(N)CC1.[Cl][Pt]([Cl])([Cl])[Cl] (stereo not drawn) [Compound 7, Cis-1,4-Diaminocyclohexanetetrachloroplatinum(IV)]	146%

same assay, conditions: L1210/DACH i.p., BDF1 mice; drug i.p. days 1, 5, 9; figures in parenthesis

SMILES	long term survivors/no. tested
NC1CCC(N)CC1.O.O=C([O-])C1(C(=O)[O-])CCC1.[Pt+2] [Compound 1, Cis-1,4-diaminocyclohexane-1,1-cyclobutanedicarboxylato-platinum(II).H2 O]	1/5

system: A2780 cells; assay: Modified MTT cytotoxicity assay, human ovarian A2780 (Example 2, Table 3); assay type: cell-based; conditions: continuous exposure (5 days in table footnote; 7 days in text)
Protocol: (§6) Cytotoxicity was determined by a modified MTT assay. Briefly, the compounds were dissolved in normal saline and sterilized through 0.22 μm disc filters. […] Aliquots (20 μl ) of this, and serially diluted drug solutions, and of complete media (80 μl) were pipetted in triplicate into 96-well microtiler plates immediately before addition of cells. Cells in exponential phase of growth were trypsinized for 3 min, where necessary to dislodge adherent 2780 cells, collected and counted by Coulter counter (Coulter Electronics, Hialeah, Fla.). After diluting the L1210/0 (2,000/ml) and A2780 (5,000/ml) cells to appropriate concentrations, 100 μl aliquots of these cell suspensions were added to each of the wells. […] After a 3 hour incubation, the medium was removed and replaced by 50 μl of 100% DMSO to dissolve MTT formazan crystals. Plates were then agitated on a plate shaker for 5 min, and absorbances were measured at 570 nm with a multiwell scanning spectrophotometer (Dynatech MR600, Chantilly, Va.).

SMILES	IC50
NC1CCC(N)CC1.O.O=C([O-])C1(C(=O)[O-])CCC1.[Pt+2] [Compound 1, Cis-1,4-diaminocyclohexane-1,1-cyclobutanedicarboxylato-platinum(II).H2 O]	430 nM
NC1CCC(N)CC1.[Cl][Pt]([Cl])([Cl])[Cl] (stereo not drawn) [Compound 7, Cis-1,4-Diaminocyclohexanetetrachloroplatinum(IV)]	90 nM

system: L1210/0 cells; assay: Modified MTT cytotoxicity assay, murine leukemia L1210/0 (Example 2, Table 3); assay type: cell-based; conditions: L1210/0; MTT, continuous exposure 5 days
Protocol: as §6

SMILES	IC50
NC1CCC(N)CC1.O.O=C([O-])C1(C(=O)[O-])CCC1.[Pt+2] [Compound 1, Cis-1,4-diaminocyclohexane-1,1-cyclobutanedicarboxylato-platinum(II).H2 O]	1600 nM
NC1CCC(N)CC1.[Cl][Pt]([Cl])([Cl])[Cl] (stereo not drawn) [Compound 7, Cis-1,4-Diaminocyclohexanetetrachloroplatinum(IV)]	120 nM
